Consider 29 compounds from patent US8546406B2, “Heterocyclic compounds as metap-2 inhibitors” (Merck Patent GmbH, priority 2009, dated 2013).

Chain of MetAP-2 (P50579 whole entry, species assumed): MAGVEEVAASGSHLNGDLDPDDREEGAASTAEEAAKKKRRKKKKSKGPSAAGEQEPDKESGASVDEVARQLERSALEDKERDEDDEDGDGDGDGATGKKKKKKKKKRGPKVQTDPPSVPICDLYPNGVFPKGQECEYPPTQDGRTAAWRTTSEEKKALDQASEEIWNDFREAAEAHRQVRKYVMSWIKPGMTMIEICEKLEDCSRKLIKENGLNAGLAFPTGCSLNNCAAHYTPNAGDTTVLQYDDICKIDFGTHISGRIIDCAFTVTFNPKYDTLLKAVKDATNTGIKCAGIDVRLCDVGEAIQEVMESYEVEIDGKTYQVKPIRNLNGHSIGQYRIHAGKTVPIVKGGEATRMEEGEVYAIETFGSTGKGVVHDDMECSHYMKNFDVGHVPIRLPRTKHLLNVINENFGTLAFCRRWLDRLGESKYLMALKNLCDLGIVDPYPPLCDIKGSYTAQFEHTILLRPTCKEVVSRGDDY

This assay addresses MetAP-2 (Homo sapiens, UniProt P50579). The experiment in a line: MetAP-2 activity measurement (coupled enzymatic reactions, substrate Met-Arg-Ser, photometric at 450 nm). Conditions: Inhibition of MetAP-2; read-out: IC50 enzyme. The assay is classed as biochemical. The method, then:
The MetAP-2 activity is determined by coupling enzymatic reactions. The tripeptide Met-Arg-Ser (MAS) is employed as substrate. The methionine liberated is firstly converted into Metox and H2O2 by L-aminooxidase (AAO). In the second step, the peroxidase (POD) with the aid of the H2O2 catalyses the oxidation of the leukodye dianisidine to dianisidineox, the increase of which is detected photometrically at 450 nm.
MetAP-2 activity can be recorded continuously as kinetics. The reaction scheme illustrates that one mol of dianisidineox is formed per mol of methionene. The MetAP-2 enzyme activity can therefore be calculated directly as Δ absorption per time unit. Qualification of the MetAP-2 activity (mol of Met/time unit) is possible with the aid of the dianisidineox extinction coefficient. The change in extinction per time unit is depicted graphically and a slope calculation is carried out in the visually linear region of the reaction.
For the compound `NCC(=O)N1CCc2cccc(OC[C@H]3CCCN3c3ccnc4ncnn34)c2C1` [Compound A37], the IC50 was 10 to 1000 nM.

`N#CCCCCN1CCc2cccc(OC[C@H]3CCCN3c3ccnc4ncnn34)c2C1` [Compound A38]: the IC50 was 10 to 1000 nM.

For the compound `CC(C)(C)OC(=O)N[C@H](CC#N)C(=O)N1CCc2cccc(OC[C@H]3CCCN3c3ccnc4ncnn34)c2C1` [Compound A39], the IC50 was in the range of 10 to 1000 nM.

For `N#CCCCCOC(=O)N1CCc2cccc(OC[C@H]3CCCN3c3ccnc4ncnn34)c2C1` [Compound A40], the IC50 was 10 to 1000 nM.

Consider `NCCCCN1CCc2cccc(OC[C@H]3CCCN3c3ccnc4ncnn34)c2C1` [Compound A41], for which the IC50 was 10 to 1000 nM.

`NCCCCOC(=O)N1CCc2cccc(OC[C@H]3CCCN3c3ccnc4ncnn34)c2C1` [Compound A42]: the IC50 was 10 to 1000 nM.

Regarding `COc1cccc(C(=O)OC[C@H]2CCCN2c2ccnc3ncnn23)c1` [Compound A43], the IC50 was in the range of 10 to 1000 nM.

With `O=C(OC[C@H]1CCCN1c1ccnc2ncnn12)c1cccc(Br)c1` [Compound A44], the IC50 is 10 to 1000 nM.

As to `O=C(OC[C@H]1CCCN1c1ccnc2ncnn12)c1cccc(I)c1` [Compound A45], the IC50 fell in the range of 10 to 1000 nM.

Turning to `O=C(OC[C@H]1CCCN1c1ccnc2ncnn12)c1cc(Cl)nc2ccccc12` [Compound A46], the IC50 is 10 to 1000 nM.

On to `c1ccc2c(OC[C@H]3CCCN3c3ccnc4nsnc34)cccc2c1` [Compound A47], for which the IC50 was above 10000 nM.

Take `FC(F)(F)c1cccc(COC[C@H]2CCCN2c2ccnc3ncnn23)c1` [Compound A48]: the IC50 lay within 1000 to 10000 nM.

As to `Ic1cccc(COC[C@H]2CCCN2c2ccnc3ncnn23)c1` [Compound A49], the half-inhibitory concentration (IC50) lay within 1000 to 10000 nM.

Regarding `CN(C)c1cccc(C(=O)OC[C@H]2CCCN2c2ccnc3ncnn23)c1` [Compound A50], the IC50 was 10 to 1000 nM.

For the compound `COc1cccc(COC[C@H]2CCCN2c2ccnc3ncnn23)c1` [Compound A51], the IC50 was 10 to 1000 nM.

`O=C(OC[C@H]1CCCN1c1ccnc2ncnn12)c1cccc(F)c1` [Compound A52]: the IC50 fell in the range of 10 to 1000 nM.

Consider `NC(=O)CCCC(=O)N1CCc2cccc(OC[C@H]3CCCN3c3ccnc4ncnn34)c2C1` [Compound A53], for which the IC50 lay in the range of 10 to 1000 nM.

`Fc1cccc(COC[C@H]2CCCN2c2ccnc3ncnn23)c1` [Compound A55]: the IC50 fell in the range of 10 to 1000 nM.

On to `c1cncc(COC[C@H]2CCCN2c2ccnc3ncnn23)c1` [Compound A56], for which the IC50 lay within 1000 to 10000 nM.

Regarding `O=C(O)Cc1ccccc1OC[C@H]1CCCN1c1ccnc2ncnn12` [Compound A57], the IC50 was above 10000 nM.

Consider `c1cc(COC[C@H]2CCCN2c2ccnc3ncnn23)ccn1` [Compound A58], for which the IC50 is above 10000 nM.

As to `COC(=O)c1ccc2[nH]c(COC[C@H]3CCCN3c3ccnc4ncnn34)cc2c1` [Compound A59], the IC50 was 10 to 1000 nM.

As for `O=C(OC[C@H]1CCCN1c1ccnc2ncnn12)c1cccc(C(F)(F)F)c1` [Compound A60], the IC50 is above 10000 nM.

With `O=C(OC[C@H]1CCCN1c1ccnc2ncnn12)c1ccc(Cl)nc1` [Compound A61], the IC50 lay within 10 to 1000 nM.

For the compound `O=C(OC[C@H]1CCCN1c1ccnc2ncnn12)c1cccnc1Oc1ccccc1` [Compound A62], the IC50 fell in the range of 10 to 1000 nM.

In the case of `O=C(OC[C@H]1CCCN1c1ccnc2ncnn12)c1ccc(Oc2ccccc2)nc1` [Compound A64], the IC50 lay in the range of 10 to 1000 nM.

`Clc1cc(COC[C@H]2CCCN2c2ccnc3ncnn23)cc(Cl)n1` [Compound A65]: the IC50 is above 10000 nM.

Consider `Brc1cccc(COC[C@H]2CCCN2c2ccnc3ncnn23)c1` [Compound A66, 7-[(R)-2-(3-Bromobenzyloxymethyl)pyrrolidin-1-yl]-[1,2,4]triazolo[1,5-a]pyrimidine], for which the IC50 fell in the range of 10 to 1000 nM.

`FC(F)(F)Oc1cccc(COC[C@H]2CCCN2c2ccnc3ncnn23)c1` [Compound A67, 7-[(R)-2-(3-Trifluoromethoxybenzyloxymethyl)-pyrrolidin-1-yl]-[1,2,4]triazolo[1,5-a]pyrimidine]: the IC50 was in the range of 10 to 1000 nM.

As usually defined, the IC50 is the concentration at which inhibition is half-maximal.
